# Biological target: T1, TRAP1 enzyme (Homo sapiens, UniProt Q12931)
# T1 construct: 150 nM Trap1 enzyme was incubated with various concentrations of the test compound
# T1 sequence (Q12931 60-704): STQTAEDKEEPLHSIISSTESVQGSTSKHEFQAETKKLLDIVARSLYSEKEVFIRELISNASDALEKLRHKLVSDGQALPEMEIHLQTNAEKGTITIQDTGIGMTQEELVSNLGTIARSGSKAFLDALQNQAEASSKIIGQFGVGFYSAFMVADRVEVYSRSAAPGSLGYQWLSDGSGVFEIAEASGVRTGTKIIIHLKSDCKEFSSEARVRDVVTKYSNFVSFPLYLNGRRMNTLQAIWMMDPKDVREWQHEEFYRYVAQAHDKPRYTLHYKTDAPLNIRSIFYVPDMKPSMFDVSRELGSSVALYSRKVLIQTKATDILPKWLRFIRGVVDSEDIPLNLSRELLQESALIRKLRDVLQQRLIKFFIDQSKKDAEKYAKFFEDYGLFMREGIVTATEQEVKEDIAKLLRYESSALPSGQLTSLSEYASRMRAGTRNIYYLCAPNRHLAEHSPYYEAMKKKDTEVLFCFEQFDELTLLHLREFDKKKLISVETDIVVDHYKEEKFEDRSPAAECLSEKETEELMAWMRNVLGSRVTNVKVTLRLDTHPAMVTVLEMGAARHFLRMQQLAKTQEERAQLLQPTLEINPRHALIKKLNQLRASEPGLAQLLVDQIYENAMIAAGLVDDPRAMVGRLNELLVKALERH
# Test: ADP Glo assay of TRAP1 ATPase activity
# Assay type: biochemical
# Conditions: 1 h; compound concentration 50 μM; read-out: ADP-Glo Percent Activation at 50 μM
# Outline: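 ADP-Glo luminescence quantifying ADP from 150 nM TRAP1 preincubated 30 min at 37° C with compound (0.79–100 μM), then 20 μM ATP for 60 min at 37° C. Buffer: 25 mM Pipes pH 7.5, 40 mM KCl, 0.05 mM MgCl2, EGTA, BSA, detergents. ADP from ATP/ADP standard curve; Emax and EC50 from sigmoidal fit.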
row,SMILES,activation at 50 µM [%]
1,COc1ncc(NC(=O)c2ccccc2N2CCOCC2)cc1S(=O)(=O)Nc1c(C)cccc1C [compound 2602],151 to 180
2,COc1ncc(NC(=O)c2cc(C)nn2C)cc1S(=O)(=O)Nc1c(C)cccc1C [compound 2607],120 to 150
3,COc1ncc(NC(=O)c2cn(C)nc2C(F)(F)F)cc1S(=O)(=O)Nc1c(C)cccc1C [compound 2608],151 to 180
4,CCn1nc(C)cc1C(=O)Nc1cnc(OC)c(S(=O)(=O)Nc2c(C)cccc2C)c1 [compound 2609],181 to 352
5,COc1ncc(NC(=O)c2ncn(C(C)C)n2)cc1S(=O)(=O)Nc1c(C)cccc1C [compound 2611],120 to 150
6,COc1ncc(NC(=O)c2nn(C)c3c2CCC3)cc1S(=O)(=O)Nc1c(C)cccc1C [compound 2612],151 to 180
7,COc1ncc(NC(=O)c2cccc(C(=O)N(C)C)c2)cc1S(=O)(=O)Nc1c(C)cccc1C [compound 2613],151 to 180
8,COc1ncc(NC(=O)c2cc(C(F)(F)F)nn2C)cc1S(=O)(=O)Nc1c(C)cccc1C [compound 2614],120 to 150
9,COc1ncc(NC(=O)c2snnc2C)cc1S(=O)(=O)Nc1c(C)cccc1C [compound 2615],120 to 150
10,COc1ncc(NC(=O)c2ccns2)cc1S(=O)(=O)Nc1c(C)cccc1C [compound 2617],120 to 150
11,CCCc1cc(C(=O)Nc2cnc(OC)c(S(=O)(=O)Nc3c(C)cccc3C)c2)nn1C [compound 2618],181 to 352
12,CCn1ccc(C(=O)Nc2cnc(OC)c(S(=O)(=O)Nc3c(C)cccc3C)c2)n1 [compound 2619],120 to 150
13,COc1ncc(NC(=O)c2cccc3c2CCC3)cc1S(=O)(=O)Nc1c(C)cccc1C [compound 2621],151 to 180
14,COc1ncc(NC(=O)c2cncc(N3CCCCC3)c2)cc1S(=O)(=O)Nc1c(C)cccc1C [compound 2622],120 to 150
15,COc1ncc(NC(=O)c2nn(C)cc2F)cc1S(=O)(=O)Nc1c(C)cccc1C [compound 2624],151 to 180
16,COc1ncc(NC(=O)c2cccn3cnnc23)cc1S(=O)(=O)Nc1c(C)cccc1C [compound 2625],181 to 352
17,CCCc1cc(C(=O)Nc2cnc(OC)c(S(=O)(=O)Nc3c(C)cccc3C)c2)n(C)n1 [compound 2626],181 to 352
18,COc1cc(C(=O)Nc2cnc(OC)c(S(=O)(=O)Nc3c(C)cccc3C)c2)n(C)n1 [compound 2627],151 to 180
19,COc1ncc(NC(=O)c2cn(C)nc2C)cc1S(=O)(=O)Nc1c(C)cccc1C [compound 2628],120 to 150
20,COc1ncc(NC(=O)c2nc(C)cs2)cc1S(=O)(=O)Nc1c(C)cccc1C [compound 2629],181 to 352
21,CCn1cncc1C(=O)Nc1cnc(OC)c(S(=O)(=O)Nc2c(C)cccc2C)c1 [compound 2630],120 to 150
22,COc1ncc(NC(=O)c2cccc(CN(C)C)c2)cc1S(=O)(=O)Nc1c(C)cccc1C [compound 2631],151 to 180

row,SMILES,activation at 50 µM [%]
1,COc1ncc(NC(=O)c2cncn2C)cc1S(=O)(=O)Nc1c(C)cccc1C [compound 2632],120 to 150
2,COc1ncc(NC(=O)c2cccc(N3CCN(C)CC3)c2)cc1S(=O)(=O)Nc1c(C)cccc1C [compound 2633],181 to 352
3,COc1ncc(NC(=O)c2ccccc2CN2CCOCC2)cc1S(=O)(=O)Nc1c(C)cccc1C [compound 2634],181 to 352
4,COc1ncc(NC(=O)c2cccc3c2CC(=O)N3)cc1S(=O)(=O)Nc1c(C)cccc1C [compound 2635],181 to 352
5,COc1ncc(NC(=O)c2cnsc2)cc1S(=O)(=O)Nc1c(C)cccc1C [compound 2636],120 to 150
6,COc1ncc(NC(=O)c2cnn(C(F)(F)F)c2)cc1S(=O)(=O)Nc1c(C)cccc1C [compound 2637],120 to 150
7,COc1ncc(NC(=O)c2cnn(C)c2Cl)cc1S(=O)(=O)Nc1c(C)cccc1C [compound 2638],151 to 180
8,COc1ncc(NC(=O)c2cnn(C(C)C)c2)cc1S(=O)(=O)Nc1c(C)cccc1C [compound 2639],151 to 180
9,COc1ncc(NC(=O)c2ccc(S(=O)(=O)C(F)F)cc2)cc1S(=O)(=O)Nc1c(C)cccc1C [compound 2640],151 to 180
10,COc1ncc(NC(=O)c2ccnc(N(C)C)n2)cc1S(=O)(=O)Nc1c(C)cccc1C [compound 2641],181 to 352
11,CCN(CC)S(=O)(=O)c1ccc(C(=O)Nc2cnc(OC)c(S(=O)(=O)Nc3c(C)cccc3C)c2)cc1 [compound 2642],151 to 180
12,COc1ncc(NC(=O)c2nn(C)cc2C)cc1S(=O)(=O)Nc1c(C)cccc1C [compound 2643],181 to 352
13,COc1ncc(NC(=O)c2ccc(C(F)(F)F)s2)cc1S(=O)(=O)Nc1c(C)cccc1C [compound 2644],151 to 180
14,COc1ncc(NC(=O)c2cc(C)nn2C(F)F)cc1S(=O)(=O)Nc1c(C)cccc1C [compound 2646],151 to 180
15,COc1ncc(NC(=O)c2scnc2C(F)(F)F)cc1S(=O)(=O)Nc1c(C)cccc1C [compound 2649],151 to 180
16,COc1ncc(NC(=O)c2cscn2)cc1S(=O)(=O)Nc1c(C)cccc1C [compound 2650],120 to 150
17,COc1ncc(NC(=O)c2ccnn2CC(F)(F)F)cc1S(=O)(=O)Nc1c(C)cccc1C [compound 2651],181 to 352
18,COc1ncc(NC(=O)c2ccc(N3CCOCC3)cn2)cc1S(=O)(=O)Nc1c(C)cccc1C [compound 2653],151 to 180
19,COc1ncc(NC(=O)c2scnc2C)cc1S(=O)(=O)Nc1c(C)cccc1C [compound 2654],120 to 150
20,COc1ncc(NC(=O)c2ccc(N3CCOCC3)c(F)c2)cc1S(=O)(=O)Nc1c(C)cccc1C [compound 2655],181 to 352
21,COc1ncc(NC(=O)c2ccc(-n3nc(C)nc3C)cc2)cc1S(=O)(=O)Nc1c(C)cccc1C [compound 2656],181 to 352
22,COc1ccnc(C(=O)Nc2cnc(OC)c(S(=O)(=O)Nc3c(C)cccc3C)c2)c1 [compound 2657],181 to 352

row,SMILES,activation at 50 µM [%]
1,COc1ncc(NC(=O)c2cncs2)cc1S(=O)(=O)Nc1c(C)cccc1C [compound 2658],120 to 150
2,COc1ncc(NC(=O)c2nc(C(F)(F)F)cs2)cc1S(=O)(=O)Nc1c(C)cccc1C [compound 2659],151 to 180
3,COc1ncc(NC(=O)c2cnc(C(F)(F)F)s2)cc1S(=O)(=O)Nc1c(C)cccc1C [compound 2660],120 to 150
4,COc1ncc(NC(=O)c2cnc(C)s2)cc1S(=O)(=O)Nc1c(C)cccc1C [compound 2661],151 to 180
5,COc1ncc(NC(=O)c2ccc(OCC(F)(F)F)cc2)cc1S(=O)(=O)Nc1c(C)cccc1C [compound 2662],120 to 150
6,COc1ncc(NC(=O)c2cc3n(n2)CCC3)cc1S(=O)(=O)Nc1c(C)cccc1C [compound 2663],151 to 180
7,COCCn1ccc(C(=O)Nc2cnc(OC)c(S(=O)(=O)Nc3c(C)cccc3C)c2)n1 [compound 2665],120 to 150
8,COc1ncc(NC(=O)c2ccn(C)c2)cc1S(=O)(=O)Nc1c(C)cccc1C [compound 2666],120 to 150
9,COc1ncc(NC(=O)c2ncsc2C)cc1S(=O)(=O)Nc1c(C)cccc1C [compound 2667],181 to 352
10,COc1ncc(NC(=O)c2cc(NC(C)=O)ccc2Cl)cc1S(=O)(=O)Nc1c(C)cccc1C [compound 2669],151 to 180
11,COc1ncc(NC(=O)c2ccc(NC(C)=O)cc2C)cc1S(=O)(=O)Nc1c(C)cccc1C [compound 2670],151 to 180
12,COc1ncc(NC(=O)c2ccc(NC(=O)C3CC3)cc2)cc1S(=O)(=O)Nc1c(C)cccc1C [compound 2671],120 to 150
13,COc1ncc(NC(=O)c2ncn(C)c2C(F)(F)F)cc1S(=O)(=O)Nc1c(C)cccc1C [compound 2672],120 to 150
14,COc1ncc(NC(=O)c2cnn3c2CCCC3)cc1S(=O)(=O)Nc1c(C)cccc1C [compound 2673],181 to 352
15,COc1ncc(NC(=O)c2coc(N3CCOCC3)n2)cc1S(=O)(=O)Nc1c(C)cccc1C [compound 2674],151 to 180
16,CCOc1c(C(=O)Nc2cnc(OC)c(S(=O)(=O)Nc3c(C)cccc3C)c2)cnn1C [compound 2675],120 to 150
17,COc1ncc(NC(=O)c2ccc3c(c2)NC(=O)CC3)cc1S(=O)(=O)Nc1c(C)cccc1C [compound 2677],120 to 150
18,COc1ncc(NC(=O)c2cnn(C)c2C(F)(F)F)cc1S(=O)(=O)Nc1c(C)cccc1C [compound 2678],151 to 180
19,COCCn1nccc1C(=O)Nc1cnc(OC)c(S(=O)(=O)Nc2c(C)cccc2C)c1 [compound 2679],120 to 150
20,COc1ncc(NC(=O)c2ccc(CNC(C)=O)cc2)cc1S(=O)(=O)Nc1c(C)cccc1C [compound 2682],151 to 180
21,COc1ncc(NC(=O)c2csc(C(F)(F)F)c2)cc1S(=O)(=O)Nc1c(C)cccc1C [compound 2683],120 to 150

# Reference: US20230159509A1 (Amathus Therapeutics, Inc., priority 2020, published 2023)
